Experimental data: patent publication US5403824A, “Methods for the treatment of osteoporosis” (The Procter & Gamble Company, priority 1993, dated 1995)

Legend:
[1] = system: Rat osteoblast-like cells (ROS 17/2.8); experiment: [3H]-thymidine incorporation, proliferation of osteoblast-like cells; type: cell-based; conditions: ROS 17/2.8, 18 hrs incubation, 2 hrs pulse
Text: Stimulation of osteoblast-like cell proliferation can be measured according to several art-recognized in vitro models. One such model is described in European Patent Publication No. 384,731, by Rodan et al, published Aug. 29, 1990, which is incorporated herein by reference. (Applicants have modified this method by reducing regent volumes to one-quarter those described and by utilizing Dulbecco's Modified eagle's Medium (DMEM).) In this model, proliferation (division) of, for example, rat osteoblast-like cells (rat osteosarcoma (ROS) cells, rat calvaria cells, etc.) is observed by measuring the amount of radiolabeled thymidine ([^3 H]thymidine) incorporated by these cells. ([^3 H]thymidine is "incorporated" by cellular DNA being synthesized as a result of cell proliferation.) The greater the level of [^3 H]thymidine measured, the greater the amount of proliferation of the osteoblast cells.
More specifically, a test sample (comprised of a test compound and osteoblast-like cells) and a control sample (comprised of only osteoblast-like cells) are pulsed with [^3 H]thymidine. The amount of [^3 H]thymidine incorporated by the cells is measured using a direct beta counter.
Rat osteoblast-like cells (ROS 17/2.8) are plated at 4×10^3 cells/well in a 96-well plate in Dulbecco's Modified eagle's Medium supplemented with 2% (v/v) Fetal Bovine Serum, and incubated for 6 hrs. Control (serum-free) medium and test medium (test sample and serum-free medium) are then added to the cells and this combination is incubated for 18 hrs. The cells are then pulsed with [^3 H]-thymidine (1 μCi/well) for 2 hrs. The medium is then removed, the cells are harvested onto glass fibre filters and the amount of [^3 H]-thymidine (counts per minute per well) incorporated into DNA is then determined using a direct beta counter. Values for control groups are then compared to values for treated groups.
The compound H-Tyr-D-Ala-Gly-Phe-D-Leu-OH ("DADLE") is screened to determine whether it stimulates proliferation of osteoblast-like cells. […] The medium is then removed, the cells are harvested onto glass fibre filters, and the amount of ^3 H-thymidine (counts per minute per well) incorporated into DNA is determined using a direct beta counter. […]
The compound Tyr-D-Cys(S-t-butylthioether)-Gly-Phe-Leu-Thr(O-t-butylether) ("BUBUC") is screened to determine whether it stimulates proliferation of osteoblast-like cells. […] The medium is then removed, the cells are harvested onto glass fibre filters, and the amount of ^3 H-thymidine (counts per minute per well) incorporated into DNA is determined using a direct beta counter. […]

[2] = system: human subject with postmenopausal osteoporosis or low bone mass; experiment: treatment of human subject with osteoporosis, vertebral density by dual-energy photon absorptiometry; type: in vivo
Protocol: A human subject weighing about 60 kg (132 lbs), suffering from postmenopausal osteoporosis, is treated by a method of this invention. Specifically, for two years, the enkephalin-degrading enzyme inhibitor DL-3-mercapto-2-benzylpropanoylglycine is administered orally, in a cyclical regimen, where each cycle consists of an active period of 28 days during which a tablet containing 160 mg of said inhibitor is administered each day, followed by a non-active period of 28 days during which the subject receives a daily supplement of calcium (1,000 mg/day), with repeat of cycle.
A human subject weighing about 60 kg (132 lbs), suffering from postmenopausal osteoporosis, is treated by a method of this invention. Specifically, for two years, the compound H-Tyr-D-Ala-Gly-Phe-D-Leu-OH ("DADLE") is administered to the subject, in a cyclical regimen, where each cycle consists of an active period of 28 days during which a solution containing 30 mg of DADLE is administered intravenously every day, followed by a non-active period of 28 days during which the patient receives a daily supplement of calcium (1,000 mg/day), with repeat of cycle.
A human subject weighing about 60 kg (132 lbs), suffering from postmenopausal osteoporosis, is treated by a method of this invention. Specifically, for two years, an enkephalin of the formula Tyr-D-Cys(S-t-butylthioether)-Gly-Phe-Leu-Thr(O-t-butylether) ("BUBUC") is administered to the subject, in a cyclical regimen, where each cycle consists of an active period of 28 days during which a solution containing 30 mg of BUBUC is intravenously administered each day, followed by a non-active period of 28 days during which the patient receives a daily supplement of calcium (1,000 mg/day), with repeat of cycle.
A human subject weighing about 60 kg (132 lbs), suffering from postmenopausal osteoporosis, is treated by a method of this invention. Specifically, for two years, the enkephalin secretagogue Tyr-Arg^1, is administered to the subject, in a cyclical regimen, where each cycle consists of an active period of 28 days during which a solution containing 30 mg of Tyr-Arg is intravenously administered each day, followed by a non-active period of 28 days during which the subject receives a daily supplement of calcium (1,000 mg/day), with repeat of cycle. […]
A human subject weighing about 60 kg (132 lbs), suffering from postmenopausal osteoporosis, is treated by a method of this invention. Specifically, each day for five years, the subject is administered 3 tablets, comprised as follows.
A human subject weighing about 60 kg (132 lbs) is evaluated approximately four years after spontaneous menopause, and is found to have low bone mass. The subject is then treated by a method of this invention to treat osteoporosis. Specifically, once each month for five years, the subject is administered, via intravenous injection, 5 ml of a solution comprised as follows.

O=C(O)CNC(=O)C(CS)Cc1ccccc1 (racemic) [DL-3-mercapto-2-benzyl-propanoylglycine]
[3H]-thymidine incorporation (proliferation) vs control [1]: significantly stimulated proliferation of the osteoblast-like cells | density of vertebrae / bone mass ([2]; Example 7: 3 tablets of 50.0 mg each day for five years): no significant loss in bone mass has occurred | density of vertebrae / bone mass ([2]; oral tablet 160 mg daily, 28 days active / 28 days calcium, two years): an increase in bone mass
